{"source": "patent US20080085874A1", "about": "“SMALL MOLECULE POTENTIATOR OF HORMONAL THERAPY FOR BREAST CANCER” (The Regents of the University of California, priority 2006, published 2008)", "key": {"MCF-7/HER2 cells": {"tested_on": "MCF-7/HER2 cells", "assay": "Cell proliferation assay in MCF-7 cells overexpressing HER2/neu", "type": "cell-based, human", "settings": "10 pM E2, 750 μM VPA and/or 10 nM OH-Tam, 7 days", "excerpt": "(§1) Cell Culture and Ligands. MCF-7 cells were provided by C. Walker (MD Anderson Cancer Center, Houston, Tex.) and were routinely cultured in IMEM (Invitrogen, Grand Island, N.Y.) with 10% fetal calf serum (FBS) (Hyclone, Logan, Utah). Ishikawa cells were also provided by C. Walker and cultured in DMEM/Ham's F12 with 10% FBS. T47-D cells were obtained from ATCC and were routinely cultured in DMBM (Invitrogen) plus 10% FBS. ZR-75-1 cells were provided by B. Hahn (University of California, San Francisco) and were routinely cultured in RPMI (Invitrogen) plus 10% PBS. MCF-7/neo and MCF-7/HER2 (clone 18) cells were also obtained from B. Hahn and cultured in DMEM plus 10% FBS. MCF-7aro cells were provided by S. Chen (Beckham Research Institute of the City of Hope) and routinely grown in DMEM/Ham's F12 plus 10% FBS. For all experiments cells were switched to phenol red-free media containing 5% charcoal/dextran-stripped FBS (Hyclone) for 3-5 days prior to start of the experiment. […]\n(§2) Cell Proliferation Assays. […] Cells were trypsinized and counted electronically with a Coulter Counter (Coulter Electronics, Hialeah, Fla.). Alternatively, cell proliferation was measured using a fluorescent DNA-binding assay, CyQUANT (Invitrogen) in which cells were treated with ligands in triplicate in 96-well plates for the indicated times and assayed according to the manufacturer's instructions."}, "MCF-7 cells [1]": {"tested_on": "MCF-7 cells", "assay": "Annexin V apoptosis assay", "type": "cell-based, human", "settings": "72 hours, absence of E2", "experimental": "Apoptosis. MCF-7 cells growing on coverslips were treated with ligands for 72 hours and unfixed cells were assayed with the Annexin-V-FLOUS Staining kit (Roche), according to manufacturer's instructions. Total cell number was determined by counting nuclei stained with Hoescht 33342 (Roche). Fluorescence was analyzed using a Zeiss Axioplan fluorescent microscope (Zeiss, Thomwood, N.Y.)."}, "MCF-7 cells [2]": {"tested_on": "MCF-7 cells", "assay": "Flow cytometry cell cycle distribution (DNA content)", "type": "cell-based, human", "settings": "48 hours", "experimental": "Flow cytometry. MCF-7 cells growing in 100 mm dishes were treated with ligands for 48 hours, then trypsinized and fixed in 70% ethanol and stained with […] propidium iodide (Roche, Nutley, N.J.). DNA content was obtained by measuring 10,000 events on a FACScalibur flow cytometer (BD Biosciences, San Jose, Calif.). The percentages of cells in each phase of the cell cycle were determined using the Watson (Pragmatic) model analyzed by FlowJo flow cytometry software (Treestar, San Carlos, Calif.)."}, "cyclin D1": {"tested_on": "cyclin D1", "assay": "Immunoblotting of cyclin D1 protein in MCF-7 cells", "type": "cell-based, human", "settings": "72 hours", "experimental": "(§3) Immunoblotting. MCF-7 cells were grown in 100 mm dishes and treated with ligands in triplicate. […] Whole cell extracts were separated by SDS-PAGE, transferred to a nitrocellulose membrane, and immunoblotted using standard methods with the following antibodies: ERα, Bik, Bcl-2, and β-tubulin (all from Santa Cruz Biotechnology, Santa Cruz, Calif.) and cyclin D1 (Zymed, San Francisco, Calif.).\n(§4) Changes in protein expression from endogenous genes in MCF-7 cells treated for 72 hours with ligands was also evaluated."}, "MCF-7aro cells": {"tested_on": "MCF-7aro cells", "assay": "Cell proliferation assay in MCF-7 cells with stably expressed aromatase", "type": "cell-based, human", "settings": "5 days", "excerpt": "as §1, §2"}, "Bcl-2": {"tested_on": "Bcl-2", "assay": "Immunoblotting of Bcl-2 protein in MCF-7 cells", "type": "cell-based, human", "settings": "72 hours", "experimental": "as §3"}, "[3]": {"tested_on": "Ishikawa endometrial adenocarcinoma cells", "assay": "Cell proliferation assay in endometrial cells", "type": "cell-based", "settings": "7 days, 750 μM VPA; for cell numbers / proliferation: 10 nM OH-Tam, 100 pM or 1 nM E2", "excerpt": "(§5) Cell Culture and Ligands. MCF-7 cells were provided by C. Walker (MD Anderson Cancer Center, Houston, Tex.) and were routinely cultured in IMEM (Invitrogen, Grand Island, N.Y.) with 10% fetal calf serum (FBS) (Hyclone, Logan, Utah). Ishikawa cells were also provided by C. Walker and cultured in DMEM/Ham's F12 with 10% FBS. T47-D cells were obtained from ATCC and were routinely cultured in DMBM (Invitrogen) plus 10% FBS. ZR-75-1 cells were provided by B. Hahn (University of California, San Francisco) and were routinely cultured in RPMI (Invitrogen) plus 10% PBS. MCF-7/neo and MCF-7/HER2 (clone 18) cells were also obtained from B. Hahn and cultured in DMEM plus 10% FBS. MCF-7aro cells were provided by S. Chen (Beckham Research Institute of the City of Hope) and routinely grown in DMEM/Ham's F12 plus 10% FBS. For all experiments cells were switched to phenol red-free media containing 5% charcoal/dextran-stripped FBS (Hyclone) for 3-5 days prior to start of the experiment. Cells were treated with ligands in media containing 2-5% stripped PBS for the indicated times.\n(§6) Cell Proliferation Assays. Cells growing in 24-well dishes were treated with ligands in triplicate for the indicated times. Cells were trypsinized and counted electronically with a Coulter Counter (Coulter Electronics, Hialeah, Fla.). Alternatively, cell proliferation was measured using a fluorescent DNA-binding assay, CyQUANT (Invitrogen) in which cells were treated with ligands in triplicate in 96-well plates for the indicated times and assayed according to the manufacturer's instructions."}, "MCF-7 cells [4]": {"tested_on": "MCF-7 cells", "assay": "Phase microscopy of cell number and morphology", "type": "cell-based, human", "settings": "6 days, 100 pM E2, 750 μM VPA, 10 nM OH-Tam"}, "MCF-7 cells [5]": {"tested_on": "MCF-7 cells", "assay": "Cell proliferation assay (Coulter Counter or CyQUANT fluorescent DNA-binding assay) in MCF-7 cells", "type": "cell-based, human", "settings": "for effect of HDAC inhibitor on antiproliferative action of tamoxifen: range of HDAC inhibitor doses with 10 nM OH-Tam; for E2-stimulated growth, antiestrogen alone / E2-stimulated growth, antiestrogen plus VPA: 100 pM E2, 7 days, fulvestrant at higher concentrations; for E2-stimulated growth, antiestrogen plus VPA: plus 750 μM VPA", "excerpt": "as §5, §6"}, "ERα": {"tested_on": "ERα", "assay": "Immunoblotting of ERα protein in MCF-7 cells", "type": "cell-based, human", "settings": "72 hours", "experimental": "as §3, §4"}, "[6]": {"tested_on": "endogenous ERα at estrogen response element (ERE)", "assay": "ERE-Luc luciferase reporter gene transfection assay", "settings": "for ERE-Luc transcription: 24 hours", "protocol": "MCF-7 cells growing in 12-well dishes were transfected with ERE-Luc and β-galactosidase reporter gene using Lipofectamine 2000 transfection reagent (Invitrogen) according to manufacturer's instructions. […] Five hours after transfection, cells were treated in triplicate with ligands and harvested 24 hours later using a lysis buffer containing 100 MM TrisHCl, 1% Triton-X100 and 1.μ/ml dithiothreitol. Reporter gene activity was measured using assay kits for Luciferase (Promega, Madison, Wis.) and β-galactosidase (Tropix, Bedford, Mass.), according to manufacturer's instructions."}}, "note": "Counter-ions that a name gives are not always drawn. Like-named read-outs stand apart in the source and are kept apart here.", "data": [{"molecule": "CCCC(CCC)C(=O)O", "note": "[VPA, valproic acid sodium salt (sodium 2-propylpentanoate)]", "values": [{"measurement": "cell proliferation", "setting": "MCF-7/HER2 cells", "value": "inhibited by VPA"}, {"measurement": "AnnexinV positive cells (apoptotic index), % of total cell population", "setting": "MCF-7 cells [1]", "value": "approximately 1.37%"}, {"measurement": "addition of VPA to tamoxifen on E2-induced cell cycle progression", "setting": "MCF-7 cells [2]; E2 present", "value": "did not yield a detectable change"}, {"measurement": "cell cycle distribution", "setting": "MCF-7 cells [2]; E2 present", "value": "had no effect"}, {"measurement": "cell cycle distribution", "setting": "MCF-7 cells [2]; absence of E2", "value": "induced a small arrest in the G1 phase"}, {"measurement": "cyclin D1 expression", "setting": "cyclin D1", "value": "did not alter cyclin D1 expression"}, {"measurement": "testosterone-induced proliferation, VPA with letrozole", "setting": "MCF-7aro cells; 750 μM VPA, regardless of the letrozole dose tested", "value": "inhibited proliferation more than that observed with letrozole alone"}, {"measurement": "Bcl-2 protein expression", "setting": "Bcl-2", "value": "did not have any effect on Bcl-2 expression either alone or with tamoxifen"}, {"measurement": "effect of VPA on E2- and tamoxifen-induced proliferation", "setting": "[3]", "value": "equally antagonized the proliferative effect of E2 and tamoxifen"}, {"measurement": "cell numbers / proliferation", "setting": "[3]", "value": "dramatically inhibited proliferation"}, {"measurement": "cell number and morphology by phase microscopy", "setting": "MCF-7 cells [4]", "value": "fewer cells as well as an increased number of floating cells"}, {"measurement": "E2-induced cell proliferation", "setting": "MCF-7 cells [5]; 750 μM VPA, 10 nM OH-Tam, 6-7 days, counted electronically", "value": "inhibition by VPA was even more dramatic"}, {"measurement": "effect of VPA on tamoxifen inhibition of cell proliferation", "setting": "MCF-7 cells [5]; 750 μM VPA, OH-Tam 0 to 500 nM, 100 pM E2, day 6", "value": "enhanced the relative efficacy of tamoxifen at all doses tested"}, {"measurement": "cell proliferation", "setting": "MCF-7 cells [5]; 750 μM VPA, without E2, 6-7 days, counted electronically", "value": "inhibited MCF 7 cells"}, {"measurement": "inhibition at 750 µM", "setting": "MCF-7 cells [5]; Homo sapiens, MCF7, 144 h, 750 μM VPA alone, 100 pM E2, day 6, fluorescent DNA-binding assay, read-out: inhibition of E2-stimulated cell proliferation", "value": 25, "unit": "%"}, {"measurement": "IC50", "setting": "MCF-7 cells [5]; Homo sapiens, MCF7, 168 h, 100 pM E2, day 7, doses of VPA ranging from 50 μM to 5 M, read-out: IC50 (cell proliferation), HDAC inhibitor alone", "value": 800, "unit": "µM"}, {"measurement": "IC50", "setting": "MCF-7 cells [5]; Homo sapiens, MCF7, 168 h, read-out: IC50 (cell proliferation), tamoxifen co-treatment, with 10 nM OH-Tam, 100 pM E2, day 7", "value": 500, "unit": "µM"}, {"measurement": "slowing of breast cancer cell growth in combination", "setting": "MCF-7 cells [5]; VPA 750 μM with rapamycin 0.05 nM, picropodophyllin 100 nM, tamoxifen 100 nM", "value": "combines effectively"}, {"measurement": "slowing of breast cancer cell growth in combination", "setting": "MCF-7 cells [5]; VPA 750 μM with rapamycin […], gefitinib 1 μM, with and without tamoxifen 100 nM", "value": "combines effectively"}, {"measurement": "effect of HDAC inhibitor on antiproliferative action of tamoxifen", "setting": "MCF-7 cells [5]; 100 pM E2, day 7", "value": "enhanced the action of tamoxifen"}, {"measurement": "ERα protein expression", "setting": "ERα; only observed in the absence of E2", "value": "slightly downregulated ERα protein expression"}, {"measurement": "increased ERα expression seen with tamoxifen treatment", "setting": "ERα; VPA with tamoxifen, absence of E2", "value": "attenuated the increased ERα expression"}, {"measurement": "ERE-Luc transcription", "setting": "[6]; 750 μM VPA, alone or with 10 nM OH-Tam", "value": "unable to activate transcription alone or in the presence of tamoxifen"}, {"measurement": "ERE-Luc transcription", "setting": "[6]; high concentrations, alone", "value": "induced transcription"}, {"measurement": "E2-induced ERE-Luc transcriptional activity", "setting": "[6]; high dose of VPA alone, in the presence of E2", "value": "inhibited E2-induced transcriptional activity"}]}, {"molecule": "NC(=O)N1c2ccccc2C=Cc2ccccc21", "note": "[carbamazepine]", "values": [{"measurement": "slowing of breast cancer cell growth in combination", "setting": "MCF-7 cells [5]; carbamazepine 50 μM with rapamycin 2 nM, picropodophyllin 100 nM, tamoxifen 10 nM", "value": "combines effectively"}]}, {"molecule": "N#Cc1ccc(C(c2ccc(C#N)cc2)n2cncn2)cc1", "note": "[letrozole]", "values": [{"measurement": "testosterone-induced proliferation", "setting": "MCF-7aro cells; 1 nM testosterone", "value": "inhibited testosterone-induced proliferation in a dose responsive manner"}]}, {"molecule": "CC(/C=C/C(=O)NO)=C\\[C@@H](C)C(=O)c1ccc(N(C)C)cc1", "note": "[TSA, trichostatin A]", "values": [{"measurement": "IC50", "setting": "MCF-7 cells [5]; 100 pM E2, day 7, read-out: IC50 (cell proliferation), HDAC inhibitor alone", "value": 0.051, "unit": "µM"}, {"measurement": "effect of HDAC inhibitor on antiproliferative action of tamoxifen", "setting": "MCF-7 cells [5]; 100 pM E2, day 7", "value": "enhanced the antiproliferative action of tamoxifen"}, {"measurement": "IC50", "setting": "MCF-7 cells [5]; read-out: IC50 (cell proliferation), co-treatment with tamoxifen, with 10 nM OH-Tam, 100 pM E2, day 7", "value": 0.032, "unit": "µM"}, {"measurement": "ERE-Luc transcription", "setting": "[6]; high concentrations, alone", "value": "induced transcription"}]}, {"molecule": "C[C@]12CC[C@@H]3c4ccc(O)cc4C[C@@H](CCCCCCCCC[S+]([O-])CCCC(F)(F)C(F)(F)F)[C@H]3[C@@H]1CC[C@@H]2O", "note": "(stereo partly drawn) [fulvestrant, Fulvestrant]", "values": [{"measurement": "E2-stimulated growth, antiestrogen alone", "setting": "MCF-7 cells [5]", "value": "decreased E2-induced proliferation"}, {"measurement": "E2-stimulated growth, sub-saturating fulvestrant plus VPA", "setting": "MCF-7 cells [5]; fulvestrant 1 to 5 nM plus VPA", "value": "VPA enhanced the anti-proliferative effect of lower doses of fulvestrant in a dose responsive manner"}, {"measurement": "E2-stimulated growth, antiestrogen plus VPA", "setting": "MCF-7 cells [5]", "value": "VPA did not further add to its inhibitory effect"}]}, {"molecule": "O=C(c1ccc(OCCN2CCCCC2)cc1)c1c(-c2ccc(O)cc2)sc2cc(O)ccc12", "note": "[Raloxifene, raloxifene]", "values": [{"measurement": "E2-stimulated growth, antiestrogen alone", "setting": "MCF-7 cells [5]", "value": "substantially decreased E2-stimulated growth"}, {"measurement": "E2-stimulated growth, antiestrogen plus VPA", "setting": "MCF-7 cells [5]", "value": "VPA further enhanced its inhibitory effect"}]}, {"molecule": "C[C@]12CC[C@@H]3c4ccc(O)cc4CC[C@H]3[C@@H]1CC[C@@H]2O", "note": "[E2, 17β-estradiol]", "values": [{"measurement": "Bcl-2 protein expression", "setting": "Bcl-2", "value": "upregulated"}, {"measurement": "cell numbers / proliferation", "setting": "[3]", "value": "increase was observed in cell numbers"}, {"measurement": "stimulation of ERE-Luc transcription", "setting": "[6]; 100 pM E2, 24 hours", "value": "approximately 13 fold"}]}]}
